Here are results for 17 compounds from patent US20040220148A1, “5-Membered ring heterocycles as inhibitors of leucocyte adhesion and as VLA-4 antagonists” (Aventis Pharma Deutschland GmbH, priority 1996, published 2004).

Structures can show the parent of a compound that is named as a salt.

The target of this assay is T1, VLA-4 integrins on human U937 cells (interaction between VCAM-1 and VLA-4) (Homo sapiens, UniProt P05556+P13612).
T1 construct: the VLA-4 integrins, are offered in their natural form as surface molecules on human U937 cells; host or cells: U937 cells (VLA-4, endogenous); the partner hVCAM-1(1-3)-IgG came from the supernatant of transfected COS cells (ATCC CRL1651)
T1 sequence (P13612 34-1032): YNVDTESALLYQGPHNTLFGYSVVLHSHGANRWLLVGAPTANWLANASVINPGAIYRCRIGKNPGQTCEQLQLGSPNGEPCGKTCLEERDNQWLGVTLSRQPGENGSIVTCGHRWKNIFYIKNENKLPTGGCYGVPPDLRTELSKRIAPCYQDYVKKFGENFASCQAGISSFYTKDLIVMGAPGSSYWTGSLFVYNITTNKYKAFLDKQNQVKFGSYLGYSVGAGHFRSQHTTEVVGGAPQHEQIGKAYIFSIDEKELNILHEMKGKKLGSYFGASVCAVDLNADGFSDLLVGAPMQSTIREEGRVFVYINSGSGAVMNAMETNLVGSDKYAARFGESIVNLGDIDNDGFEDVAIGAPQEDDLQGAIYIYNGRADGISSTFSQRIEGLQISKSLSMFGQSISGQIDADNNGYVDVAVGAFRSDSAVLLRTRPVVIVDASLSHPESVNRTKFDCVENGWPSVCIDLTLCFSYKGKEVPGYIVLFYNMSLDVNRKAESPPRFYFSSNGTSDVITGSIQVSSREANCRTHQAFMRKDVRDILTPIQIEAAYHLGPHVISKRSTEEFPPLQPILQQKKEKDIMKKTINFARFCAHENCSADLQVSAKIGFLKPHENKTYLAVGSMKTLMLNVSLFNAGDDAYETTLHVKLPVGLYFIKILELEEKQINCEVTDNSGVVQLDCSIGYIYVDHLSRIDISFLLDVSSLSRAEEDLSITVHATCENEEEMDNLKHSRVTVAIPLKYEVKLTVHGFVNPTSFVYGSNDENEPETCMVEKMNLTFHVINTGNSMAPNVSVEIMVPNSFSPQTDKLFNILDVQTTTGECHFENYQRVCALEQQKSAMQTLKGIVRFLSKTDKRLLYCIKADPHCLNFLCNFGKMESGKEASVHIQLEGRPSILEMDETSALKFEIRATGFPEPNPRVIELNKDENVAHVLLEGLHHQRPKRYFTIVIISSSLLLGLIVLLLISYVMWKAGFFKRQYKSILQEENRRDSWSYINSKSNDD
T1 sequence (P05556 21-798): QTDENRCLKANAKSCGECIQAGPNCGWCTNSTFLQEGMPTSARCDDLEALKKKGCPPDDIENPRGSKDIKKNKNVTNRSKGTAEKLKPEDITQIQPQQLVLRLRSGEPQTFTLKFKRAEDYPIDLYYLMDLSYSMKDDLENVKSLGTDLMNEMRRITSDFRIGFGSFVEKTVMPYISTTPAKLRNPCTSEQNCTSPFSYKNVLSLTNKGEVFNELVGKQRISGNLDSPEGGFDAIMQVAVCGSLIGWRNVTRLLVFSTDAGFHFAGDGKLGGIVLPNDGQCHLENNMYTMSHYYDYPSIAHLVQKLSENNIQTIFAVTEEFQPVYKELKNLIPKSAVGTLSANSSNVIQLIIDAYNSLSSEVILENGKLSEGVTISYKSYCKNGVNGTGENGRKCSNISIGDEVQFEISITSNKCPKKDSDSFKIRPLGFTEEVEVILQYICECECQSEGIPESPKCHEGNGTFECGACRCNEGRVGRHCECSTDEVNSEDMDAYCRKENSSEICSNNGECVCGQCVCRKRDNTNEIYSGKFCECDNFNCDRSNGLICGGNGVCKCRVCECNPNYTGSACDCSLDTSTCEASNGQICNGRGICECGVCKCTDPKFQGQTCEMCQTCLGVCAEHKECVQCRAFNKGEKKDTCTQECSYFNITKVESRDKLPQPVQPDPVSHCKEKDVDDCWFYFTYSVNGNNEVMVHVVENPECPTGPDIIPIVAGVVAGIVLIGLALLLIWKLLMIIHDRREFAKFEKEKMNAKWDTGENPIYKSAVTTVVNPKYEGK
As to the kind of experiment: U937/VCAM-1 cell adhesion test (adhesion of U937 cells to hVCAM-1(1-3)-IgG). The following applies: concentration leading to 50% inhibition of adhesion. Type of assay: cell-based. An excerpt: As a test method for the activity of the compounds of the formula I on the interaction between VCAM-1 and VLA-4, an assay which is specific for this interaction is used. The cellular binding components, i.e. the VLA-4 integrins, are offered in their natural form as surface molecules on human U937 cells (ATCC CRL 1593) which belong to the group of leucocytes. As specific binding components, recombinant soluble fusion proteins prepared by genetic engineering and consisting of the extracytoplasmic domains of human VCAM-1 and the constant region of a human immunoglobulin of the subclass IgG1 are used.
Assay for the Measurement of the Adhesion of U937 Cells (ATCC CRL 1593) to hVCAM-1 (1-3)-IgG
1. Preparation of Human VCAM-1(1-3)-IgG and Human CD4-IgG
A genetic construct for the expression of the extracellular domains of human VCAM-1 was employed, associated with the genetic sequence of the heavy chain of human immunoglobulin IgG1 (hinge, CH2 and CH3 regions), from Dr. Brian Seed, Massachusetts General Hospital, Boston, USA. The soluble fusion protein hVCAM-1(1-3)-IgG contained the three amino-terminal extracellular immunoglobulin-like domains of human VCAM-1 (Damle and Aruffo, Proc. Natl. Acad. Sci. USA 1991, 88, 6403). CD4-IgG (Zettlmeissl et al, DNA and Cell Biology 1990, 9, 347) served as a fusion protein for negative controls. The recombinant proteins were expressed as soluble proteins after DEAE/dextran-mediated DNA-transfection in COS cells (ATCC CRL1651) according to standard procedures (Ausubel et al., Current protocols in molecular biology, John Wiley & Sons, Inc., 1994).
2. Assay for Measurement of the Adhesion of U937 Cells to hVCAM-1(1-3)-IgG
2.1 96-well microtiter test plates (Nunc Maxisorb) were incubated at room temperature for 1 hour with 100 μl/well of a goat-anti-human IgG antibody solution (10 μg/ml in 50 mM tris, pH 9.5). After removing the antibody solution, washing was carried out once with PBS.
2.2 150 μl/well of a blocking buffer (1% BSA in PBS) were incubated on the plates at room temperature for 0.5 hours. After removing the blocking buffer, washing was carried out once with PBS.
2.3 100 μl per well of a cell culture supernatant of transfected COS cells were incubated on the plates at room temperature for 1.5 hours. The COS cells were transfected with a plasmid which codes for the three N-terminal immunoglobulin-like domains of VCAM-1, coupled to the Fc part of human IgG1 (hVCAM-1(1-3)-IgG). The content of hVCAM-1 (1-3)-IgG was about […]. After removing the culture supernatant, washing was carried out once with PBS.
2.4 The plates were incubated at room temperature for 20 minutes with […] of Fc receptor blocking buffer (1 mg/ml of γ-globulin, 100 mM NaCl, 100 μM MgCl2, 100 μM MnCl2, 100 μM CaCl2, 1 mg/ml BSA in 50 mM HEPES, pH 7.5). After removing the Fc receptor blocking buffer, washing was carried out once with PBS.
2.5 20 μl of binding buffer (100 mM NaCl, 100 μM MgCl2, 100 μM MgCl2, 100 μM CaCl2, 1 mg/ml BSA in 50 mM HEPES, pH 7.5), were initially introduced, the substances to be tested were added in 10 μl of binding buffer and the mixture was incubated for 20 minutes. As controls, antibodies against VCAM-1 (BBT, No. BBA6) and against VLA-4
(Immunotech, No. 0764) were used.
2.6 U937 cells were incubated in Fc receptor blocking buffer for 20 minutes and then pipetted in at a concentration of 1×10^6/ml and in an amount of 100 μl per well ([…]).
2.7 The plates were slowly immersed at an angle of 45° in stop buffer (100 mM NaCl, 100 μM MgCl2, 100 μM MnCl2, 100 μM CaCl2 in 25 mM Tris, pH 7.5) and shaken off. The process was repeated.
2.8 50 μl/well of a dye solution (16.7 μg/ml of Hoechst dye 33258, 4% formaldehyde, 0.5% Triton X-100 in PBS) were then incubated on the plates for 15 minutes.
2.9 The plates were shaken off and slowly immersed at an angle of 45° in stop buffer (100 mM NaCl, 100 μM MgCl2, 100 μM MnCl2, 100 μM CaCl2 in 25 mM Tris, pH 7.5). The process was repeated. […]
For `COc1cc(OC)cc(C(CC(=O)O)NC(=O)CN2C(=O)N(Cc3ccccc3)C(C)(c3ccc(C(=N)N)cc3)C2=O)c1` [Example 59, (R,S)-3-(((R,S)-4-(4-(Amino-imino-methyl)phenyl)-3-benzyl-4-methyl-2,5-dioxoimidazolidin-1-yl)acetylamino)-3-(3,5-dimethoxyphenyl)propionic acid], the IC50 came out at 27.5 µM. This lies in the double-digit micromolar range.

In the case of `CN(C(=O)CN1C(=O)N(Cc2ccc(-c3ccccc3)cc2)C(C)(c2ccc(C(=N)N)cc2)C1=O)[C@@H](CC(=O)O)C(=O)N[C@H](C(=O)O)c1ccccc1` (stereo partly drawn) [Example 18, ((R,S)-4-(4-(Amino-imino-methyl)phenyl)-3-((4-biphenylyl)methyl)-4-methyl-2,5-dioxoimidazolidin-1-yl)acetyl-L-N-methyl-aspartyl-L-phenylglycine], the 50% inhibitory concentration (IC50) amounted to 0.09 µM. This IC50 lies about 310-fold lower than the previous one.

`CC(C(=O)N[C@@H](CC(=O)O)C(=O)N[C@H](C(=O)O)c1ccccc1)N1C(=O)N(Cc2ccccc2)C(C)(c2ccc(C(=N)N)cc2)C1=O` (stereo partly drawn) [Example 62, ((R,S)-2-((R,S)-4-(4-(Amino-imino-methyl)phenyl)-3-benzyl-4-methyl-2,5-dioxoimidazolidin-1-yl)-2-methylacetyl)-L-aspartyl-L-phenylglycine] registered a concentration for half-maximal inhibition (IC50) of 0.37 µM.

Compound `Cc1cc(C)cc(CN2C(=O)N(CC(=O)N[C@@H](CC(=O)O)C(=O)N[C@H](C(=O)O)c3ccccc3)C(=O)C2(C)c2ccc(C(=N)N)cc2)c1` (mixture of isomers) [Example 8, ((R,S)-4-(4-(Amino-imino-methyl)phenyl)-3-(3,5-dimethylbenzyl)-4-methyl-2,5-dioxoimidazolidin-1-yl)acetyl-L-aspartyl-L-phenylglycine] showed an IC50 of 3.5 µM.

With `COc1ccc(C(CC(=O)O)NC(=O)CN2C(=O)N(Cc3ccccc3)C(C)(c3ccc(C(=N)N)cc3)C2=O)cc1OC` [Example 57, (R,S)-3-(((R,S)-4-(4-(Amino-imino-methyl)phenyl)-3-benzyl-methyl-2,5-dioxoimidazolidin-1-yl)acetylamino)-3-(3,4-dimethoxyphenyl)propionic acid], the IC50 came to 17.5 µM.

Regarding `Cc1c(C)c(C)c(CN2C(=O)N(CC(=O)N[C@@H](CC(=O)O)C(=O)N[C@H](C(=O)O)c3ccccc3)C(=O)C2(C)c2ccc(C(=N)N)cc2)c(C)c1C` (mixture of isomers) [Example 17, ((R,S)-4-(4-(Amino-imino-methyl)phenyl)-3-(pentamethylbenzyl)-4-methyl-2,5-dioxoimidazolidin-1-yl)acetyl-L-aspartyl-L-phenylglycine], the IC50 was 79 µM. Against the preceding compound, the IC50 is about 4.5-fold higher.

As for “((S)-4-(3-Guarndinopropyl)-3-benzyl-2,5-dioxoimidazolidin-1-yl)acetyl-D-aspartyl-L-phenylglycine-L-tyrosine hydrochloride [Example 39]”, half-maximal inhibition (IC50) required 8 µM.

With `CC1(c2ccc(C(=N)N)cc2)C(=O)N(CC(=O)NC(CC(=O)O)c2ccc3c(c2)OCCO3)C(=O)N1Cc1ccccc1` [Example 58, (R,S)-3-(((R,S)-4-(4(Amino-imino-methyl)phenyl)-3-benzyl-4-methyl-2,5-dioxoimidazolidin-1-yl)acetylamino)-3-(3,4-ethylenedioxyphenyl)propionic acid], the 50% inhibitory concentration (IC50) came to 25 µM.

As for `CCN1C(=O)N(CC(=O)N[C@@H](CC(=O)O)C(=O)N[C@H](C(=O)O)c2ccccc2)C(=O)[C@@H]1CCCN` [Example 35, ((S)-4-(3-Aminopropyl)-3-ethyl-2,5-dioxoimidazolidin-1-yl)acetyl-L-aspartyl-L-phenylglycine], the concentration for half-maximal inhibition (IC50) turned out to be 250 µM.

On to `CCN1C(=O)N(CC(=O)N[C@@H](CC(=O)O)C(=O)N[C@@H](C(=O)O)c2ccccc2)C(=O)[C@@H]1CCCNC(=N)N` [Example 36, ((S)-4-(3-Guanidinopropyl)-3-ethyl-2,5-dioxoimidazolidin-1-yl)acetyl-L-aspartyl-D-phenylglycine], for which half-maximal inhibition (IC50) was put at 250 µM.

`CC1(c2ccc(C(=N)N)cc2)C(=O)N(CC(=O)NC(CC(=O)O)c2ccccc2)C(=O)N1Cc1ccccc1` [Example 33, (R,S)-3-(((R,S)-4-(4-(Amino-imino-methyl)phenyl)-3-benzyl-4-methyl-2,5-dioxoimidazolidin-1-yl)acetylamino)-3-phenylpropionic acid hydrochloride] returned a 50% inhibitory concentration (IC50) of 45 µM.

`CC1(c2ccc(C(=N)N)cc2)C(=O)N(CC(=O)N[C@@H](CC(=O)O)C(=O)N[C@H](C(=O)O)c2ccccc2)C(=O)N1Cc1c(F)c(F)c(F)c(F)c1F` (mixture of isomers) [Example 6, ((R,S)-4-(4-(Amino-imino-methyl)phenyl)-3-(2,3,4,5,6-pentafluorobenzyl)-4-methyl-2,5-dioxoimidazolidin-1-yl)acetyl-L-aspartyl-L-phenylglycine] returned a half-maximal inhibitory concentration (IC50) of 65 µM.

The compound `CC1(c2ccc(C(=N)N)cc2)C(=O)N(CC(=O)NC[C@H](NC(=O)OCc2ccccc2)C(=O)O)C(=O)N1Cc1ccccc1` (stereo partly drawn) [Example 46, (S)-3-(((R,S)-4-(4-(Amino-imino-methyl)phenyl)-3-benzyl-4-methyl-2,5-dioxoimidazolidin-1-yl)acetylamino)-2-benzyloxycarbonylaminopropionic acid] yielded an IC50 of 6.8 µM.

The compound `CC1(c2ccc(C(=N)N)cc2)C(=O)N(CC(=O)N[C@@H](CC(=O)O)C(=O)N[C@H](C(=O)O)c2ccccc2)C(=O)N1Cc1ccccc1CS(=O)(=O)c1ccccc1` (mixture of isomers) [Example 10] had an IC50 of 47 µM.

`CC1(c2ccc(N)cc2)C(=O)N(CC(=O)N[C@@H](CC(=O)O)C(=O)N[C@H](C(=O)O)c2ccccc2)C(=O)N1Cc1ccccc1` (stereo partly drawn) [Example 70, ((R,S)-4-(4-Aminophenyl)-3-benzyl-4-methyl-2,5-dioxoimidazolidin-1-yl)acetyl-L-aspartyl-L-phenylglycine] returned a half-maximal inhibitory concentration (IC50) of 3 µM.

`CN(C(=O)CN1C(=O)N(Cc2ccccc2)C(C)(c2ccc(C(=N)N)cc2)C1=O)[C@@H](CC(=O)O)C(=O)N[C@H](C(=O)O)c1ccccc1` (mixture of isomers) [Example 19, ((R,S)-4-(4-(Amino-imino-methyl)phenyl)-3-benzyl-4-methyl-2,5-dioxo-imidazolidin-1-yl)acetyl-L-N-methyl-aspartyl-L-phenylglycine] gave an IC50 of 0.2 µM.

On to `COC(=O)[C@@H](NC(=O)[C@H](CC(=O)O)NC(=O)CN1C(=O)N(Cc2ccccc2)C(C)(c2ccc(C(=N)N)cc2)C1=O)c1ccccc1` (mixture of isomers) [Example 25, ((R,S)-4-(4-(Amino-imino-methyl)phenyl)-3-benzyl-4-methyl-2,5-dioxo-imidazolidin-1-yl)acetyl-L-aspartyl-L-phenylglycine methyl ester], for which the 50% inhibitory concentration (IC50) is 22 µM.

In general, IC50 refers to the concentration at which inhibition is half-maximal. A high value points to weaker potency.
